Results on eleven molecules are retold here after ChEMBL document CHEMBL1145498, “A systematic interaction map of validated kinase inhibitors with Ser/Thr kinases” (Proc Natl Acad Sci U S A, 2007).

For test [1], the target named is Ribosomal protein S6 kinase alpha-3 (Homo sapiens) (UniProt P51812).
Test [2] addresses Calcium/calmodulin-dependent protein kinase kinase 2 (Homo sapiens, UniProt Q96RR4).
Test [3] addresses Casein kinase I isoform gamma-1 (Homo sapiens) (UniProt Q9HCP0).
In test [4] the target is Serine/threonine-protein kinase 26 (Homo sapiens) (UniProt Q9P289).
Serine/threonine-protein kinase 26 (Homo sapiens), sequence (Q9P289 2-416 limits assumed): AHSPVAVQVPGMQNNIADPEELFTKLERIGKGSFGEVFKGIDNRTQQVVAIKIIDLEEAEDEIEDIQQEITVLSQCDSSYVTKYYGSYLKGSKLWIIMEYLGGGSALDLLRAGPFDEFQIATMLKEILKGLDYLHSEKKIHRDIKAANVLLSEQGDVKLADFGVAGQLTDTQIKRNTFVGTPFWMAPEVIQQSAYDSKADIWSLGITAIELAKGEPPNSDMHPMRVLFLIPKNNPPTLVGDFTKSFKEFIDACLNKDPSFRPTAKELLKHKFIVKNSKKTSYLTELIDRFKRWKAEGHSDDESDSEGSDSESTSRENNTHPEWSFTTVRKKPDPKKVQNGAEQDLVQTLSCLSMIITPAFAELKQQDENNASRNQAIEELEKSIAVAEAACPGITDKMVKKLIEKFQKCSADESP
The target of test [5] is Cyclin-dependent kinase 16 (Homo sapiens) (UniProt Q00536).
Cyclin-dependent kinase 16 (Homo sapiens), sequence (Q00536 whole entry): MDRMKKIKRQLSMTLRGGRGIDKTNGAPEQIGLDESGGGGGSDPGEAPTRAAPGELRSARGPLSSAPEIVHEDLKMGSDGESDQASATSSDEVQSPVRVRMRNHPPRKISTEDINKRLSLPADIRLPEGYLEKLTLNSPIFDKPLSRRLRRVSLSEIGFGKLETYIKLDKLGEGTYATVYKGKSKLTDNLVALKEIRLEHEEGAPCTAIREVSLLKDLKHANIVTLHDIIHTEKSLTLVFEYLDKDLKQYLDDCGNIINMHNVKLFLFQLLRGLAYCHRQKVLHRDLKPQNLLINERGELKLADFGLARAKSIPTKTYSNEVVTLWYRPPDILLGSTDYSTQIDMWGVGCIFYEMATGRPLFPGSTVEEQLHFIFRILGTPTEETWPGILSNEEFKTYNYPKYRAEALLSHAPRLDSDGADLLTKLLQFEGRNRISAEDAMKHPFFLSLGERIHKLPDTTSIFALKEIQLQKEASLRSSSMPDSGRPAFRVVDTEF
The target of test [6] is Serine/threonine-protein kinase PAK 4 (Homo sapiens) (UniProt O96013).
Serine/threonine-protein kinase PAK 4 (Homo sapiens), sequence (O96013 whole entry, looked up): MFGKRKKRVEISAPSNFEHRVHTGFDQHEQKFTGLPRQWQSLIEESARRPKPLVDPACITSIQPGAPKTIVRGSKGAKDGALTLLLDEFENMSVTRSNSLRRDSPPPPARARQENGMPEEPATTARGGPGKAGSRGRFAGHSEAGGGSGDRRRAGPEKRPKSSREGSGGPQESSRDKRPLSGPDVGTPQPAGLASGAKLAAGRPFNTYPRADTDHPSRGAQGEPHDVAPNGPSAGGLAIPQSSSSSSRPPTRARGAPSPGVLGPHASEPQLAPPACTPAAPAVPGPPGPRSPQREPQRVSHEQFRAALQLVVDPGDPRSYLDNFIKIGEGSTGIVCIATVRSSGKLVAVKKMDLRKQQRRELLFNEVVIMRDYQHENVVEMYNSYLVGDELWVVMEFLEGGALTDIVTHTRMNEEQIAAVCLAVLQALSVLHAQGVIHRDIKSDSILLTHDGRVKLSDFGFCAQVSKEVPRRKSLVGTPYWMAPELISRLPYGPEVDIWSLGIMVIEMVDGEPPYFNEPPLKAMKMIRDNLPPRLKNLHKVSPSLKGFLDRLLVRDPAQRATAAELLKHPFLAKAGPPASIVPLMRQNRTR
Test [7] has as its target T1, Calcium/calmodulin-dependent protein kinase type IV (Homo sapiens) (UniProt Q16566).
T1 sequence (whole entry): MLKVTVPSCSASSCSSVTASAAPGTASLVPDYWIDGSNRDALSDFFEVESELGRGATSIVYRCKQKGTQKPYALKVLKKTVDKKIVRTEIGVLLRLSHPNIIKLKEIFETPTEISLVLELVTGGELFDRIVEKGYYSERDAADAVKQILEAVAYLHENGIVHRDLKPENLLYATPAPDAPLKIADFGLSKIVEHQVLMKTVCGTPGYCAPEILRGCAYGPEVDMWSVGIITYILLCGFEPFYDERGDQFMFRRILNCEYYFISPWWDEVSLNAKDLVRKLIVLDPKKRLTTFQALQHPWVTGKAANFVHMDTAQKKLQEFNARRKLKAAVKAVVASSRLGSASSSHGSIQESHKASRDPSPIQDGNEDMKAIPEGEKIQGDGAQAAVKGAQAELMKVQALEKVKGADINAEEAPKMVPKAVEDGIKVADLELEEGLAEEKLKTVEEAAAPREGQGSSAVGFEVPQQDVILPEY

The target of test [8] is TRAF2 and NCK-interacting protein kinase (Homo sapiens) (UniProt Q9UKE5).
TRAF2 and NCK-interacting protein kinase (Homo sapiens), sequence (Q9UKE5 whole entry, looked up): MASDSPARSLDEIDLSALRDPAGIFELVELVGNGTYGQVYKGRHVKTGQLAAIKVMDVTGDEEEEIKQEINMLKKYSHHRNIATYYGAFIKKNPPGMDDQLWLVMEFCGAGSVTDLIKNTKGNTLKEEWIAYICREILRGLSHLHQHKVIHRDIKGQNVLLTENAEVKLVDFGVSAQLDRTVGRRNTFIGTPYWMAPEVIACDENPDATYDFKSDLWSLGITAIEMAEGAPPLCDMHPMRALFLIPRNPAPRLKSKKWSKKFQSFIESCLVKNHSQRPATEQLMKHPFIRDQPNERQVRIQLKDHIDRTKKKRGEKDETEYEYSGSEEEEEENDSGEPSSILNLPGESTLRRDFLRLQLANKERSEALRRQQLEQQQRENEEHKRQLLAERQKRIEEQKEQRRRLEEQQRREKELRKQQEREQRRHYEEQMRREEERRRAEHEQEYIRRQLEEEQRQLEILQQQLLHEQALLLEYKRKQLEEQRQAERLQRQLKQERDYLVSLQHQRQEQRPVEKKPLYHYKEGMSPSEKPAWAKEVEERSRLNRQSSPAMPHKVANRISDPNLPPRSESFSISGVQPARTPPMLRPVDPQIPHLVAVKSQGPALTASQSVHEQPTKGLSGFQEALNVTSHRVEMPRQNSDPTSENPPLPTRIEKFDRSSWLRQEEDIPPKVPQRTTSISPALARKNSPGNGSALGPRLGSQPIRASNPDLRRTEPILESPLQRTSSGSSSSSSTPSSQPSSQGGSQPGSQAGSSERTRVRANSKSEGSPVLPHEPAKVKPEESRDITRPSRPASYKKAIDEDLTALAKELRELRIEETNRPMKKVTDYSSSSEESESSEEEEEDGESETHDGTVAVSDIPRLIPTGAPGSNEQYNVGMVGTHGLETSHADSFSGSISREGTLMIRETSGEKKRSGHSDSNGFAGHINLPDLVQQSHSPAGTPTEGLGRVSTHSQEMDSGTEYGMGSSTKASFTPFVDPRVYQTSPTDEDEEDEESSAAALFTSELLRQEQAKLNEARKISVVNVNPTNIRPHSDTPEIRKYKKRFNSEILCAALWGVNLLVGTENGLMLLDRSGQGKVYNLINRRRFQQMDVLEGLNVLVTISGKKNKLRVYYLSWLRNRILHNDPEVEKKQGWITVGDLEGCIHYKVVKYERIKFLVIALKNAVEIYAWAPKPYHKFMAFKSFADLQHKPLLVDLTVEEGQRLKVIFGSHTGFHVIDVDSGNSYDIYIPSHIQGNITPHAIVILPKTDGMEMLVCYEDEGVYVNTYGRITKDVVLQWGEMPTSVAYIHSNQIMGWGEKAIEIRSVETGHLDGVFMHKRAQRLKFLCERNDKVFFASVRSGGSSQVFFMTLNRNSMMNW
Test [9] deals with Serine/threonine-protein kinase pim-3 (Homo sapiens) (UniProt Q86V86).
Test [10] has as its target T2, Mitogen-activated protein kinase kinase kinase 5 (Homo sapiens) (UniProt Q99683).
T2 sequence (whole entry): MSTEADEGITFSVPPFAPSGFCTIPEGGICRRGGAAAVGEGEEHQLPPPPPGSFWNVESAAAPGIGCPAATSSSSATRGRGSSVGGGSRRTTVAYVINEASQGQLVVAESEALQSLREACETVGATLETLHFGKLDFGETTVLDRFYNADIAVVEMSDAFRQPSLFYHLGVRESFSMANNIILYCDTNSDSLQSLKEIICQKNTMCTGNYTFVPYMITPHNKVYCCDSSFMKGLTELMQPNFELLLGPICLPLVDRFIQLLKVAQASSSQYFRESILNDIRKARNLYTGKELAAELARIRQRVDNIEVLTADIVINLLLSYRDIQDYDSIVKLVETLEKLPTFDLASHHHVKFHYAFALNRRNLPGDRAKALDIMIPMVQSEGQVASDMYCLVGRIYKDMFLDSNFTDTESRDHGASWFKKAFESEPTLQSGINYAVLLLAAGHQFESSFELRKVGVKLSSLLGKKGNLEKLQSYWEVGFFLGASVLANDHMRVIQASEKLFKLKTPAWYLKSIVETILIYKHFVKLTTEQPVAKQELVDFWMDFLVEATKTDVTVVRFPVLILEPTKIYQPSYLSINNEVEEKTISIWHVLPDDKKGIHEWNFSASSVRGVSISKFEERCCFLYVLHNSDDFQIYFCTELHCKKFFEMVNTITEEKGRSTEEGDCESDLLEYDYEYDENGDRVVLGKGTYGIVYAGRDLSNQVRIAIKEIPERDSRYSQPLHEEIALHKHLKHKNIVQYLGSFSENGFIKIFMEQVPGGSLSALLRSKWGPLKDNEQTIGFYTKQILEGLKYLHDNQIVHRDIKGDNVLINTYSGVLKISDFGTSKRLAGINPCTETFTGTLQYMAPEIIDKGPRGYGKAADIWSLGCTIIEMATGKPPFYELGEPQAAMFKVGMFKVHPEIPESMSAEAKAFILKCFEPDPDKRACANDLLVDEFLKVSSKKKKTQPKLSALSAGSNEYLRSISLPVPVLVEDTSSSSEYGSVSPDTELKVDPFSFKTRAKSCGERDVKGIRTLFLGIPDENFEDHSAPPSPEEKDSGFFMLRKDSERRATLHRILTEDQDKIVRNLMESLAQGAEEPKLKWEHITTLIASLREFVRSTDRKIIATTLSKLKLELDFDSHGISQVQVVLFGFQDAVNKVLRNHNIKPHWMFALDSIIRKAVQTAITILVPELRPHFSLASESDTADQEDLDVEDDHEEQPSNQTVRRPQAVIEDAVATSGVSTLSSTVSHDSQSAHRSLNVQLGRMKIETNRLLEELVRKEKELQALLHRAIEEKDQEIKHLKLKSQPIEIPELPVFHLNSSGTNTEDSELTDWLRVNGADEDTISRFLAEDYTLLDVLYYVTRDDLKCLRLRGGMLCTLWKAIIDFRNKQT

Test [11] addresses T3, Myotonin-protein kinase (Homo sapiens) (UniProt Q09013).
T3 sequence (whole entry): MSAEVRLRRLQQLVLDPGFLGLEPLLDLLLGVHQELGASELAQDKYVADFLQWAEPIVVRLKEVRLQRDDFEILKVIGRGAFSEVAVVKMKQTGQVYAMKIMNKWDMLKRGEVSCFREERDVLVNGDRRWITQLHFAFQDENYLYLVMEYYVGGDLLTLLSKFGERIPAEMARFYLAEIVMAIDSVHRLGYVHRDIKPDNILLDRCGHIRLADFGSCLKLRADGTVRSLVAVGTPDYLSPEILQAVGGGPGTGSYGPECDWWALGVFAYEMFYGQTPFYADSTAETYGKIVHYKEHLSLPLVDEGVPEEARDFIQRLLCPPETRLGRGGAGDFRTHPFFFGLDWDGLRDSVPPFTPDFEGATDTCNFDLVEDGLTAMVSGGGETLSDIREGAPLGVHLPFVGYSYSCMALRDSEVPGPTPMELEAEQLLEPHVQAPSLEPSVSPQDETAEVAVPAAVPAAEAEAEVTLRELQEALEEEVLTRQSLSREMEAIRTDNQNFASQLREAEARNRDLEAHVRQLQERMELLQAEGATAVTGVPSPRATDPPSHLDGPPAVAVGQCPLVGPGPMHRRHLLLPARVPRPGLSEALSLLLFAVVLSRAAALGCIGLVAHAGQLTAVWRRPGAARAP

Ribosomal protein S6 kinase alpha-3 (Homo sapiens), sequence (P51812 whole entry): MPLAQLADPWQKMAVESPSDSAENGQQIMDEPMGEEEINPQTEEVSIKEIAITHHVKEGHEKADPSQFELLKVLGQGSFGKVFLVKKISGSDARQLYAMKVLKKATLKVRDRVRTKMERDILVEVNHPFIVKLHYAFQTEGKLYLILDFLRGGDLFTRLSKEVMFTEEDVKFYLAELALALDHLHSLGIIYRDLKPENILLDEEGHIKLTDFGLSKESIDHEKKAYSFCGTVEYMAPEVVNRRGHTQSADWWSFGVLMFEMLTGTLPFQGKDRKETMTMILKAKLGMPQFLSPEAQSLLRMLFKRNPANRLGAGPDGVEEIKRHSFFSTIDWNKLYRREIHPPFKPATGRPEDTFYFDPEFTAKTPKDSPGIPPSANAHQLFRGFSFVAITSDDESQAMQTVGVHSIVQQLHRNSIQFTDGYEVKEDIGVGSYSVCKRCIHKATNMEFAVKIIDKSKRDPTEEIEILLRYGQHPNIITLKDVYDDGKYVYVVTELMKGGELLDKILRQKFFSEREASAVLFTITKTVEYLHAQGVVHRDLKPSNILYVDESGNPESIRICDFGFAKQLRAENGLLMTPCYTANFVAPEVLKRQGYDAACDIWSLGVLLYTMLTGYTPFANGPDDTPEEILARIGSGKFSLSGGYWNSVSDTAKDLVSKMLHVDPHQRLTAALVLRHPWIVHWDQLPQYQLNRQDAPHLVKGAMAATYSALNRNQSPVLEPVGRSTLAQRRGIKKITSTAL
Calcium/calmodulin-dependent protein kinase kinase 2, sequence (Q96RR4 2-588 limits assumed): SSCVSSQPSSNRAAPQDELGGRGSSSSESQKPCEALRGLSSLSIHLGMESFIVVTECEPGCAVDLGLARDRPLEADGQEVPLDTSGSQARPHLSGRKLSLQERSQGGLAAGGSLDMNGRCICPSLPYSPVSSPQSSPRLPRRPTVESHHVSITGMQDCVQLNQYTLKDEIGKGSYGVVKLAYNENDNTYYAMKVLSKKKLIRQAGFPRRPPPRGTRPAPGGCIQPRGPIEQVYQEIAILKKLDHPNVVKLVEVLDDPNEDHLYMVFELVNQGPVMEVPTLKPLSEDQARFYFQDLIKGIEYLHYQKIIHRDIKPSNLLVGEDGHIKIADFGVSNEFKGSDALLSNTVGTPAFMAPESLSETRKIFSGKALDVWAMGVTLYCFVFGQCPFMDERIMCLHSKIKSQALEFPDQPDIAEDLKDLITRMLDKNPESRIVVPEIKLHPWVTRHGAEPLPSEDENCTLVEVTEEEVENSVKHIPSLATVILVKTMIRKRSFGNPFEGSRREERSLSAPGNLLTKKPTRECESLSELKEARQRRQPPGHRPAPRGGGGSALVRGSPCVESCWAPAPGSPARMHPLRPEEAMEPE
Casein kinase I isoform gamma-1 (Homo sapiens), sequence (Q9HCP0 whole entry, looked up, canonical isoform): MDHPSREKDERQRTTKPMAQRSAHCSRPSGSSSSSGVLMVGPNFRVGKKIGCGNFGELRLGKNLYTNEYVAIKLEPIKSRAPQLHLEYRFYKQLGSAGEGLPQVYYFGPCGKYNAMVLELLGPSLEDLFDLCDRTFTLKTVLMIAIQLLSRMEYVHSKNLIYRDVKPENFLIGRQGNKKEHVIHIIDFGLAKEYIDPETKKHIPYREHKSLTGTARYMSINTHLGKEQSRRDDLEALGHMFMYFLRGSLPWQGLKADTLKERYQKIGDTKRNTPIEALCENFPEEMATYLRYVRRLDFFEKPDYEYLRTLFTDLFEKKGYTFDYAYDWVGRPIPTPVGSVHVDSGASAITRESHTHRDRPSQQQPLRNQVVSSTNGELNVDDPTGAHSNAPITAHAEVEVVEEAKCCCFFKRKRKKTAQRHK

Take `CN(C)c1ncnc2nc[nH]c12` [DIMETHYLADENINE]: the ΔTm in test [1] was 0.8 °C; in test [2], 1 °C; in [3], -0.1 °C; in test [4], 0.1 °C; in [5], -0.3 °C; in test [6], 0.5 °C. Moreover, the ΔTm in test [7] is 0.1 °C; in [8], 0 °C; in test [9], 0.9 °C; in test [10], 2.8 °C; in [11], 0.8 °C.

As to `CCOc1ccc(/C=C2/SC(=O)N(CCN)C2=O)cc1` [HIAZOLIDINEDIONE1], the ΔTm in [1] was 0 °C; in test [2] it was -0.4 °C; in test [3], 0.3 °C; in test [4], -0.3 °C; in [5], 0.2 °C; in [6], 0.6 °C. Besides, the ΔTm in test [7] was 0.4 °C; in test [8], -0.4 °C; in test [9] it was 0.5 °C; in test [10] it was 0.4 °C; in test [11] it was 1.4 °C.

Turning to `CN(C)S(=O)(=O)c1ccc2c(c1)/C(=C/c1cc3c([nH]1)CCCC3)C(=O)N2`, the ΔTm in test [1] was -0.1 °C; in test [2] it was 7.6 °C; in test [3], 0.9 °C; in test [4], 6.3 °C; in test [5] it was 0.1 °C; in [6], 1.3 °C. The ΔTm was 2.6 °C in test [7]; 4.2 °C in test [8]; 1.7 °C in test [9]; 1.2 °C in test [10]; -0.3 °C in [11].

Take `Cc1[nH]c(/C=C2\C(=O)Nc3ccc(S(=O)(=O)N(C)c4cccc(Cl)c4)cc32)c(C)c1C(=O)N1CCN(C)CC1`: the ΔTm in test [1] was 11.3 °C; in test [2], 1.2 °C; in test [3], 0.6 °C; in [4] it was 5 °C; in [5] it was -0.6 °C; in test [6], 1.4 °C. Moreover, the ΔTm in [7] is -0.1 °C; in test [8], 0.4 °C; in test [9], 9.7 °C; in [10], -0.7 °C; in [11] it was 2.2 °C.

Take `O=C(Nc1cccc(Nc2nccc(Nc3cccc(C(F)(F)F)c3)n2)c1)C1CC1` [ANILINOPYRIMIDINE1]: the ΔTm in [1] worked out at 5.7 °C; in [2], 2 °C; in [3] it was 0.7 °C; in test [4], 1.5 °C; in test [5] it was 3.2 °C; in [6], 1.5 °C. The shift in melting temperature (ΔTm) was 0.7 °C in test [7]; 0.2 °C in [8]; -0.7 °C in test [9]; 0.2 °C in test [10]; 9.3 °C in [11].

With `Cc1cc(Nc2nc(-c3ccccc3)nc3ccccc23)n[nH]1`, the thermal shift (ΔTm) in test [1] came to 6.4 °C; in test [2] it was 2 °C; in test [3] it was 3.3 °C; in test [4], 3.3 °C; in test [5], 1.4 °C; in [6] it was 5.9 °C. In addition, the ΔTm is 4.7 °C in test [7]; -1 °C in [8]; 5.2 °C in test [9]; 0.9 °C in test [10]; 1.9 °C in test [11].

For the molecule `O=c1c(O)c(-c2ccc(O)c(O)c2)oc2cc(O)cc(O)c12` [QUERCETIN], the shift in melting temperature (ΔTm) in test [1] came out at 6.6 °C; in [2], 5.5 °C; in [3], 3.2 °C; in test [4], 4.4 °C; in [5], 1.8 °C; in [6] it was 2.3 °C. The shift in melting temperature (ΔTm) in test [7] is 6.7 °C; in test [8] it was 3.3 °C; in test [9], 8.8 °C; in test [10], 3.4 °C; in test [11] it was 3 °C.

In the case of `O=C1NC(=O)c2c1c1c3ccccc3[nH]c1n1cncc21` [ISOGRANULATIMIDE], the ΔTm in [1] came out at 2.5 °C; in test [2] it was 0.5 °C; in test [3], 4.3 °C; in [4], 2.5 °C; in [5] it was 3.1 °C; in test [6], 3.8 °C. The ΔTm in test [7] was determined as 6 °C; in test [8] it was 0 °C; in test [9], 8.8 °C; in test [10] it was 2.6 °C; in [11] it was 2.2 °C.

Consider `COc1cc(O)c2c(c1)oc(=O)c1c3cc(O)c(O)cc3oc21` [WEDELOLACTONE], for which the ΔTm in test [1] turned out to be 1 °C; in [2], 2.3 °C; in [3], 1 °C; in test [4], 1.4 °C; in test [5], 0.1 °C; in test [6] it was 1.6 °C. Besides, the shift in melting temperature (ΔTm) was 0.8 °C in [7]; 1.3 °C in test [8]; 5.9 °C in [9]; 0.8 °C in [10]; 2.7 °C in [11].

As to `COc1cccc(-c2cc(=O)c3ccccc3o2)c1N`, the ΔTm is -0.2 °C in test [1]; -0.4 °C in [2]; 0.1 °C in test [3]; -0.1 °C in test [4]; -0.2 °C in test [5]; 0.5 °C in [6]. Further, the ΔTm in [7] was -0.1 °C; in [8], -0.1 °C; in [9], 0.7 °C; in test [10] it was -0.1 °C; in test [11], -0.2 °C.

Take `CSc1nc(-c2ccc(F)cc2)c(-c2ccnc(NC(C)c3ccccc3)c2)[nH]1` (racemic): the ΔTm in test [1] amounted to 0.2 °C; in test [2], 0.7 °C; in test [3], 3.6 °C; in test [4], 0.7 °C; in test [5], 0.4 °C; in test [6], 0.2 °C. Also, the ΔTm was -0.3 °C in test [7]; -1.2 °C in [8]; -0.5 °C in [9]; 0.4 °C in test [10]; 1.3 °C in [11].
